Data as given in patent publication US20120107835A1, “METHOD FOR DETECTING BETA-AMYLOID USING AMINO ACID DIMERS” (E[…] TELECOMM[…] INSTITUTE, priority 2010, published 2012).
No end group written: not given here. *: point of attachment. Biotin = O=C1N[C@H]2[C@H](CS[C@H]2CCCCC(=O)*)N1

system: causative β-amyloid (Aβ42); test: Sandwich ELISA detection of β-amyloid using biotinylated amino acid dimers instead of secondary antibody (absorbance at 450 nm); format: binding; conditions: Aβ40 vs Aβ42, dimer 100 μM, FIG. 2
Procedure: Detection of β-amyloid was carried out using the biotinylated amino acid dimers prepared in Example 1, as follows.
Normal β-amyloid (Aβ40) and causative β-amyloid (Aβ42) were obtained from rPeptide (at Bogart, Ga., USA), and monoclonal antibodies specific for the β-amyloids(primary antibodies) were obtained from Covance (France). Each of the primary antibodies was mixed with sodium carbonate (pH 9.2) and the solution was added to a 96-well microplate for coating the wells (high-affinity F series, available from
NUNC, and then the microplate was washed with PBS or distilled water.
Meanwhile, each β-amyloid was dissolved in a sodium carbonate buffer (pH 9.4, Pierce) to a concentration of 1.0 mg/mL. For dilution, 100 μL of the β-amyloid solution was mixed with 9,900 μL of PBS. Each 200 μL of the resulting β-amyloid solution was dispensed into the wells of the 96-well microplate, and incubated for 4-hr at a room temperature so that β-amyloid binds to the primary antibody. Then, the plate was washed five times with PBS buffer (Pierce, at Rockford, Ill., USA), and 100 μL of the biotinylated amino acid dimer solution (amino acid dimer, dissolved in PBS to a concentration of 100 μM) was added to allow reaction for 1 hr. Each well was washed five times with PBS buffer, and 200 μL of streptavidin-HRP solution (diluted by 1:10,000, Pierce, at Rockford, Ill., USA) was added to allow reaction over 1 hr. After the reaction was completed, the plate was washed three times with PBS buffer, 100 μL of TMB substrate solution (KPL, USA) was added to allow reaction for 10-minute under a dark condition. Then, 50 μL of 15% hydrochloric acid was added to stop the reaction, and the absorbance of the reaction mixture at 450 nm was measured using a microplate reader (Bio-RAD, iMark).

Row | Substance | difference of absorbance between Aβ40 and Aβ42
1 | Biotin-Ala-Arg [Dimer 1] | very significant
2 | Biotin-Arg-Ile [Dimer 3] | very significant
3 | Biotin-Arg-Leu [Dimer 5] | very significant
4 | Biotin-Cys-Ser [Dimer 13] | very significant
